The source of these data is PMC10062145 (Journal of Virology, 2023).

Data set [1] relates to NDV F48E9. Nature of the data set: microbe, parasite or virus in culture. It is filed as cell-based, Newcastle disease virus. The note with it: for IC50: avian paramyxovirus 1, 24 h.
In the next data set the test system is β-catenin. It is filed as cell-based.
Data set [2] addresses T1, HSP90β (Gallus gallus, UniProt Q04619).
T1 construct: endogenous in cells; host or cells: DF-1 cell lysate
In words: Drug affinity responsive target stability (DARTS), HSP90β. Format: binding. The note with it: 200 μM, DF-1 cell lysate, 50 ng of pronase.

The test system of a further data set is PRV. In words: microbe, parasite or virus in culture. It is filed as cell-based, pseudorabies virus.
The test system of a further data set is VSV. In words: microbe, parasite or virus in culture. It is filed as cell-based, vesicular stomatitis virus.
Data set [3] concerns the target T1, HSP90β. Nature of the data set: Cellular thermal shift assay (CETSA), HSP90β. Format: binding. The note with it: 200 μM, DF-1 cell lysate.
In data set [4] the test system is NDV F48E9. Format: cell-based, Newcastle disease virus.
In the next data set the test system is OASL. It is filed as cell-based.
Data set [5] has as its system NDV Blackbird/China/08(IX). Nature of the data set: microbe, parasite or virus in culture. Format: cell-based, Newcastle disease virus. The following applies: avian paramyxovirus 1, 24 h, read-out: IC50 Blackbird/China/08(IX).
Data set [6] relates to PPRV, CDV, VSV, PRRSV, AIV, PRV. In words: organism not typed. Format: cell-based. The note with it: read-out: IC50 against these viruses (PPRV, CDV, VSV, PRRSV, AIV, PRV).
The subject of the next data set is AIV. In words: microbe, parasite or virus in culture. Format: cell-based, avian influenza virus.
A short description of another data set: in vitro. The following applies: chicken.
The test system of another data set is IFN-β. Format: cell-based.
Data set [7] relates to GSK-3β. Format: binding.
The next data set relates to NP, P protein. Format: cell-based, Newcastle disease virus.
Data set [8] deals with GSK-3β. It is filed as binding. The source holds these as a separate data set.
The next data set deals with PRRSV. Nature of the data set: microbe, parasite or virus in culture. Format: cell-based, porcine reproductive and respiratory syndrome virus.
Data set [9] relates to genes downstream of the Wnt/β-catenin pathway. It is filed as cell-based.
In data set [10] the test system is NDV F48E9. It is filed as cell-based, Newcastle disease virus. This is another data set of the same source.
The next data set deals with CDV. In words: microbe, parasite or virus in culture. Format: cell-based, canine distemper virus.
Data set [11] relates to NDV F48E9. Format: cell-based, Newcastle disease virus. This is another data set of the same source.
The test system of data set [12] is NDV PPMV-1/SX-01/Ch/15(VI). In words: microbe, parasite or virus in culture. It is filed as cell-based, Newcastle disease virus. The following applies: avian paramyxovirus 1, 24 h, read-out: IC50 PPMV-1/SX-01/Ch/15(VI).
Another data set has as its system NDV La sota (II). Nature of the data set: microbe, parasite or virus in culture. It is filed as cell-based, Newcastle disease virus. The following applies: avian paramyxovirus 1, 24 h, read-out: IC50 La sota (II).
The next data set relates to Wnt/β-catenin pathway. Format: cell-based.
The test system of another data set is chicken IFN-β promoter. It is filed as cell-based.
The test system of the next data set is PPRV. In words: microbe, parasite or virus in culture. Format: cell-based, peste des petits ruminants virus.
The subject of another data set is MX1. It is filed as cell-based.
For a further data set, the system named is F48E9 L protein. Format: cell-based, Newcastle disease virus.

Residues, ends and D or L forms follow the SMILES beside them. *: point of attachment. Cbz = O=C(OCc1ccccc1)*

T1 sequence (Q04619 whole entry): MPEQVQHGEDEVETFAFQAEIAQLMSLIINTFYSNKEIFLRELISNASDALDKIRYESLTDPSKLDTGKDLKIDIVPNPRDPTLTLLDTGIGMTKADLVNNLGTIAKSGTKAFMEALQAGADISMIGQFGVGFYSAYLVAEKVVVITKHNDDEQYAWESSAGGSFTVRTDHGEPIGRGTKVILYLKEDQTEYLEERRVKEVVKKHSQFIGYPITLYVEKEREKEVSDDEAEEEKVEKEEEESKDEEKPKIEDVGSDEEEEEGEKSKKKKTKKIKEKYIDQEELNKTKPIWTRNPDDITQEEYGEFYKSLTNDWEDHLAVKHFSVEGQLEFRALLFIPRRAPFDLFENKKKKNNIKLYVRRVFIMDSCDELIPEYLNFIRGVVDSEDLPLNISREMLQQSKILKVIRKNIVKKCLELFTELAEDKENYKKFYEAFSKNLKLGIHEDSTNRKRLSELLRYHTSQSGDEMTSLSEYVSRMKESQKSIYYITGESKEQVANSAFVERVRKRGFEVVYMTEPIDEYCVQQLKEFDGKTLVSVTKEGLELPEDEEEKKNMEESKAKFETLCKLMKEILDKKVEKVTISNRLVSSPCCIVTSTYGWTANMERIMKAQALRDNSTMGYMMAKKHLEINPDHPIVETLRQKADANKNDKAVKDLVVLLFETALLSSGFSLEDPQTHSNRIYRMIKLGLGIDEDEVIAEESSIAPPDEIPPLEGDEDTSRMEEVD

Take `Cc1cc(/C=C2\SC(=O)N(c3ccccc3)C2=O)c(C)n1-c1cccnc1` [iCRT14]: the “effect on the proliferation of NDV” value in the data set on NDV F48E9 [1] is “no effect”.
Consider `COC[C@H]1OC(=O)c2coc3c2[C@@]1(C)C1=C(C3=O)[C@@H]2CCC(=O)[C@@]2(C)C[C@H]1OC(C)=O` [wortmannin], for which the “amounts of β-catenin in NDV-infected cells” value with β-catenin is reported as “no effect”.
As to `CCCCn1c2cc(O)ccc2c2ccnc(C)c21` [compound 11, 9-butyl-harmol], the “pronase-induced digestion of HSP90β (DARTS)” value at HSP90β [2] is reported as “prevented”. In the data set on NDV F48E9 [1], the “inhibitory rate (reduction compared to DMSO-treated cells), primary screening” value was “higher than 99%”. Moreover, in the data set with NDV F48E9 [1], the “reduction in infectious virus particle production, high dose of NDV” value was determined as 3.08 Log. Further, the “reduction of infectious virus particle production” value with NDV F48E9 [1] is 5.26 Log. The IC50 in the data set with NDV F48E9 [1] was 490 ± 110 nM; with PRV (Suid alphaherpesvirus 1, BHK-21, 24 h, read-out: IC50 PRV), 810 ± 110 nM; with VSV (Vesicular stomatitis virus, BHK-21, 24 h, read-out: IC50 VSV) it was 430 ± 160 nM; in [5] it was 630 ± 300 nM; in data set [6], 380 to 810 nM; in the data set with AIV (unidentified influenza virus, A549, 24 h, read-out: IC50 AIV), 530 ± 180 nM. Also, the IC50 with PRRSV (Porcine reproductive and respiratory syndrome virus, MARC145, 24 h, read-out: IC50 PRRSV) was 540 ± 150 nM; with CDV (canine distemper virus, Vero, 24 h, read-out: IC50 CDV), 400 ± 120 nM; in data set [12], 710 ± 260 nM; with NDV La sota (II) it was 580 ± 80 nM; with PPRV (peste-des-petits-ruminants virus, Vero, 24 h, read-out: IC50 PPRV), 380 ± 60 nM. Moreover, the “reduction of mRNA of PRV” value in the data set on PRV amounted to 66.83%. Besides, the “reduction in mRNA expression level of VSV” value in the data set on VSV is reported as over 80%. In addition, the “thermal stability of cellular HSP90β (CETSA)” value on HSP90β [3] was “increased the thermal stability”. In addition, in the data set on NDV F48E9 [4], the NDV adsorption result was “not inhibited”. Besides, the “expression of OASL upon F48E9 infection” value with OASL is given as 2.51 fold. Besides, the “reduction in mRNA expression level of AIV” value in the data set with AIV is given as over 80%. In the data set “in vitro”, this molecule displayed a CC50 of over 50000 nM. Moreover, the “expression of IFN-β with NDV infection” value in the data set on IFN-β is recorded as 1.95 fold. Moreover, the “expression of IFN-β without NDV infection” value in the data set with IFN-β stood at 3.04 fold. Besides, the “thermal stability of GSK-3β (CETSA)” value in the data set with GSK-3β [7] is “strongly changed the thermal stability”. For the same molecule, in the data set on NP, P protein, the “expression of NP and expression of P” value is reported as “not affected”. In addition, in the data set on GSK-3β [8], the “proteolysis of GSK-3β by pronase (DARTS)” value is on record as “less sensitive to proteolysis”. The “reduction in mRNA expression level of PRRSV” value in the data set with PRRSV is on record as over 80%. In [9], the “MYC upregulation (transcriptome)” value is 2.1287 fold. For the same molecule, in data set [9], the “PPARgamma upregulation (transcriptome)” value was 2.7893 fold. Moreover, the “WISP1 upregulation (transcriptome)” value in data set [9] is 5.2201 fold. The “viral inhibition in time-of-addition study” value in the data set on NDV F48E9 [10] was “significant viral inhibition”. In addition, the “inhibitory rate (reduction) against CDV” value with CDV was “higher than 99%”. Further, the “reduction of CDV mRNA” value in the data set on CDV was found to be 100 fold. Also, the “entry of NDV” value in the data set with NDV F48E9 [11] was “no effect”. In addition, the TOPFlash/FOPFlash luciferase activity result with Wnt/β-catenin pathway is given as “significantly activated”. In addition, in the data set with chicken IFN-β promoter, the “IFN-β promoter activity with NDV infection” value is given as 2.89 fold. Further, the “IFN-β promoter activity without NDV infection” value with chicken IFN-β promoter is 4.90 fold. Moreover, the “inhibitory rate (reduction) against PPRV” value with PPRV is recorded as “higher than 99%”. Moreover, the “reduction of PPRV mRNA” value in the data set on PPRV was found to be 100 fold. In the data set with MX1, the “expression of MX1 upon F48E9 infection” value is 3.13 fold. The “expression of L” value with F48E9 L protein is “significant reduction”.
Regarding `[Cl-].[Li+]` [LiCl, reference compound], the “reduction in infectious virus particle production” value in the data set on NDV F48E9 [1] amounted to 2.69 Log. Also, the “expression of IFN-β” value with IFN-β is “enhanced”.
As to `COc1ccc2c(c1)[nH]c1c(C)nccc12` [harmine, reference compound], the “effect on NDV proliferation (harmine)” value in the data set on NDV F48E9 [1] is “no effect”. Moreover, the “anti-PRV activity (harmine)” value in the data set with PRV is “excellent”.
In the case of `CC(C)C[C@@H](C=O)NC(=O)[C@H](CC(C)C)NC(=O)[C@H](CC(C)C)NC(=O)OCc1ccccc1` [MG-132] (Cbz-Leu-Leu-Leu-aldehyde), the “amounts of β-catenin in NDV-infected cells” value with β-catenin was “significantly restored”.
Turning to `NC(=O)c1ncn([C@@H]2O[C@H](CO)[C@@H](O)[C@H]2O)n1` [Ribavirin, reference compound], the IC50 was determined as 8620 ± 1440 nM in the data set on NDV F48E9 [1], 10400 ± 2850 nM in [5], 11600 ± 2130 nM in data set [12] and 7970 ± 1590 nM in the data set with NDV La sota (II).
Consider `C=CCNC1=C2C[C@@H](C)C[C@H](OC)[C@H](O)[C@@H](C)/C=C(\C)[C@H](OC(N)=O)[C@@H](OC)/C=C\C=C(/C)C(=O)NC(=CC1=O)C2=O` [17-AAG], for which the “reduction of infectious virus particle production” value in the data set on NDV F48E9 [1] stood at 4.19 Log.
